In US9345764B2, “Moesin modulators and uses thereof” (SHANGHAI KEXIN BIOTECH CO., LTD., priority 2010, dated 2016):

Tests used:
[1] = test system: human pulmonary microvascular endothelial cell line (HPMEC); test: Cell proliferation assay; type: cell-based; conditions: agent alone; compared with negative control (Group 6, PBS); FIG. 3
Experimental: Cell proliferation assay were performed using a human pulmonary microvascular endothelial cell line (HPMEC). Cells were plated in each well on a 6-well plate at 10^6 cells/cm^2, and cultured at […] in the presence of various testing and control reagents as described below. After culturing for a determined period of time, cells were collected and labeled for flow cytometry analysis. Proliferation rates at 2 hrs, 24 hrs and 36 hrs were determined by dividing the mean OD570 value from the tested groups with the mean OD570 value from the group having the same number of cells as the test groups at the beginning of the cell culturing.
Tested and control groups are as follows:
2) Antibody against full length moesin protein (anti-Moesin);
3) Antibody against the C-terminal tail domain only (anti-M3);
4) TNF-alpha+anti-Moesin;
6) PBS solution (negative control)

HPMEC cells = test: Annexin V apoptosis assay (FITC/PI, flow cytometry); type: cell-based, human; conditions: agent alone, without combination partner
Experimental: Cell cultures in the presence of anti-moesin antibodies as described in Example 1 were subjected to apoptosis assay as well as surface antigen assay, to assess the antibody's effect on promoting endothelial cell apoptosis and on intercellular expression of moesin (indicating the active form of the protein).
Annexin V assay was used to study apoptosis. Collected cells were washed with PBS, centrifuged, and added sequentially with 70% ethanol, […] (200 mg/l) and PI (20 mg/l). Cells were then stained with Annexin-V FITC/PI kit for double staining of FITC and PI, because viable cells are both FITC and PI negative, while cells that are in early apoptosis are FITC positive but PI negative, and cells that are in late apoptosis or already dead are both FITC and PI positive. Stained cells are analyzed using a flow cytometer for amount of apoptotic cells in the presence of variant testing agents. The percentage of cells in early apoptosis and the percentage of cells in late apoptosis or dead cells after treatment with the test groups and the control group were determined and the results are shown in FIG. 4(a) and FIG. 4(b) respectively.

## TNF-alpha
[1]
  cell proliferation rates: reduced cell proliferation rates but not as much as in combination with anti-moesin or anti-M3
HPMEC cells
  cell apoptosis: could induce cell apoptosis but the effect is not as much as it in combination with anti-moesin or anti-M3
